Tests used:
[1] = Inhibition of GSK3
[2] = target: Cyclin-dependent kinase 1/cyclin B (Homo sapiens, UniProt P06493); type: protein-complex assay
[3] = target: Cyclin-dependent kinase 2/cyclin A (Homo sapiens) (UniProt P24941+P20248+P78396); experiment: (§1) Inhibition of CDK2/cyclinA at 10 mM; type: protein-complex assay
[4] = target: Glycogen synthase kinase-3 beta (Homo sapiens, UniProt P49841)
[5] = target: Cyclin-dependent kinase 2/cyclin A (Homo sapiens, UniProt P24941); experiment: as §1; type: protein-complex assay
[6] = target: Glycogen synthase kinase-3 (Homo sapiens, UniProt P49840+P49841); type: protein assay
[7] = target: Glycogen synthase kinase-3 alpha (Homo sapiens, UniProt P49840)
Chain of Glycogen synthase kinase-3 alpha (P49840 whole entry): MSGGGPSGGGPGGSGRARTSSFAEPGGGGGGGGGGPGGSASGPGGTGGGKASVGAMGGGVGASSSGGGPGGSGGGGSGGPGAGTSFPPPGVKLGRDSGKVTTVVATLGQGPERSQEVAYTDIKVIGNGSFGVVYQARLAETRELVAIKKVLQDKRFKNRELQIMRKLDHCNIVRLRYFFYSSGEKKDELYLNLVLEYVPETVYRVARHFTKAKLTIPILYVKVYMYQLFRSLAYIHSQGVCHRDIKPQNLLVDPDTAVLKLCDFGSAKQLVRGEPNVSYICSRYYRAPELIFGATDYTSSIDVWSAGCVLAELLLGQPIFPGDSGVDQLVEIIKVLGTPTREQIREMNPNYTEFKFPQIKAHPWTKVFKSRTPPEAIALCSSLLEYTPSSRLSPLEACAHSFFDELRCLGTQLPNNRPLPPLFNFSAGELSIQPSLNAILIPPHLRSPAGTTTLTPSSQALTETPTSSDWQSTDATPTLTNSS

Chain of Glycogen synthase kinase-3 beta (P49841 whole entry): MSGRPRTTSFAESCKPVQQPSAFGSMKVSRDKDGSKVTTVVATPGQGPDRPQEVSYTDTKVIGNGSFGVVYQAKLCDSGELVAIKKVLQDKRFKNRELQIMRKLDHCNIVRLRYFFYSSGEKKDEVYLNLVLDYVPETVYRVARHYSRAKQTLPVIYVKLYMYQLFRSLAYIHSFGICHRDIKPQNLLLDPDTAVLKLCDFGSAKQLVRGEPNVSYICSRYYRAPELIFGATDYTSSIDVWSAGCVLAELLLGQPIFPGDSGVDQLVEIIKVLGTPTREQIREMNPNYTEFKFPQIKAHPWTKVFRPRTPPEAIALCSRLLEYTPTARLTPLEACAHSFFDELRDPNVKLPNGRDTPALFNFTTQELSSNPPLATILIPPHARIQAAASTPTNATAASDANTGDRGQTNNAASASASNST

| IC50 [1] [nM] | IC50 [2] [nM] | Compound | further results |
| --- | --- | --- | --- |
| 5 |  | O=Nc1c(-c2c(O)[nH]c3ccccc23)[nH]c2ccccc12 [INDIRUBIN-3-MONOXIME] |  |
| 750 | 850 | CC(C)c1c(-c2ccc(Cl)cc2)[nH]c2nccnc12 |  |
|  | > 10000 | Cn1sc(=O)n(Cc2ccccc2)c1=O |  |
|  |  | CN(C)CCC(=O)Nc1n[nH]c2nnc(-c3ccccc3)cc12 | inhibition [3]: 90% |
|  |  | Nc1cccc(-c2cc3c(Oc4cccc(O)c4)ncnc3[nH]2)c1 | IC50 [4]: 30 nM |
|  |  | O=C1NC(=O)C(c2cccc(Cl)c2)=C1Nc1ccc(Cl)c(C(=O)O)c1 | IC50 [5]: > 10000 nM |
| 450 |  | CN1CC[C@H](c2c(O)cc(O)c3c(=O)cc(-c4ccccc4Cl)oc23)[C@H](O)C1 [ALVOCIDIB] |  |
|  |  | COc1cccc(-n2ncc3c(N/N=C/c4ccncc4)ncnc32)c1 [GW784752X] | IC50 [4]: 16 nM |
|  |  | CN1CCN(c2ccc(NCCNc3ccc([N+](=O)[O-])c(N)n3)nc2-c2ccc(Cl)cc2Cl)C(=O)C1 | IC50 [6]: 4 nM |
|  |  | Nc1nonc1-n1nnc(-c2nnc(-c3ccncc3)[nH]2)c1CN1CCCCC1 | IC50 [5]: > 250000 nM |
|  | 3700 | Nc1nc(NCCNc2ncc(-c3ncc[nH]3)c(-c3ccc(Cl)cc3Cl)n2)ccc1[N+](=O)[O-] | IC50 [7]: 0.65 nM |
|  | 900 | O=C1NC(=O)C(c2ccccc2[N+](=O)[O-])=C1Nc1ccc(O)c(Cl)c1 |  |
| 650 |  | CCCCc1c(-c2ccc(O)cc2)[nH]c2nccnc12 [ALOISINE A] |  |
|  |  | O=C1NC(=O)C2=C1c1cn(c3ncccc13)CCOCCOCCOCCOCCn1cc2c2cccnc21 | IC50 [4]: 34 nM |
| 1000 | 600 | NC1N=Nc2nc3ccccc3nc21 (configuration not stated) |  |
|  |  | O=C1NC(=O)C2=C1c1cn(c3ncccc13)CCCC1=CC=C(CCCn3cc2c2cccnc23)S1 | IC50 [4]: 36 nM |
| 10 |  | OCCCNc1cc(-c2ccnc(Nc3cccc(Cl)c3)n2)ccn1 |  |
|  | 550 | Cn1cc(C2=C(c3ccc(Cl)cc3Cl)C(=O)NC2=O)c2ccccc21 [SB-216763] |  |
|  |  | Cn1cc(C2=C(c3cn(CCCSC(=N)N)c4ccccc34)C(=O)NC2=O)c2ccccc21 [BISINDOLYLMALEIMIDE IX] | IC50 [4]: 3 nM |
|  | > 10000 | Ic1cccc(CSc2nnc(-c3ccncc3)o2)c1 |  |

| Compound | IC50 [1] [nM] | IC50 [2] [nM] | further results |
| --- | --- | --- | --- |
| CN[C@@H]1C[C@H]2O[C@@](C)([C@@H]1OC)n1c3ccccc3c3c4c(c5c6ccccc6n2c5c31)C(=O)NC4 [STAUROSPORINE] | 15 |  |  |
| CN(C)CCCn1cc(C2=C(c3c[nH]c4ccccc34)C(=O)NC2=O)c2ccccc21 [GF-109203] |  | 2300 | IC50 [4]: 190 nM |
| COc1ccc2c(c1)/C(=C/c1cnc[nH]1)C(=O)N2 [SU-9516] | 330 |  |  |

From ChEMBL document CHEMBL1240296, “Pharmacological inhibitors of glycogen synthase kinase 3” (Trends Pharmacol Sci, 2004)
